{"source": "patent US20200016136A1", "about": "(VIIV HEALTHCARE UK (NO. 5) LIMITED, priority 2017, published 2020)"}
{"tested_on": "NL-RLuc virus (recombinant NL4-3 HIV with Renilla Luciferase gene)", "assay": "Inhibition of HIV replication (NL-RLuc virus in MT-2 cells, luciferase readout)", "format": "cell-based, Human immunodeficiency virus (HIV)", "conditions": "MT2, 120 h", "how_it_was_run": "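MT-2 cells infected with NL4-3-derived virus carrying Renilla luciferase in place of part of nef, grown 5 days with serial compound dilutions in RPMI 1640/10% FBS. Virus growth read as luciferase expression. EC50 from median effect equation, at least 2 experiments.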", "units": {"EC50": "nM"}}
{"compound": "Cc1nc(C)c([C@H](OC(C)(C)C)C(=O)O)c(N2CCC(C)(C)CC2)c1-c1ccc2c(c1)CCN(c1nccc(N3C4CCC3CN(C)C4)n1)C2", "note": "[Example 43, (2S)-2-(tert-Butoxy)-2-[4-(4,4-dimethylpiperidin-1-yl)-2,6-dimethyl-5-[2-(4-{3-methyl-3,8-diazabicyclo[3.2.1]octan-8-yl}pyrimidin-2-yl)-1,2,3,4-tetrahydroisoquinolin-6-yl]pyridin-3-yl]acetic Acid]", "EC50": 3}
{"compound": "Cc1nc(C)c([C@H](OC(C)(C)C)C(=O)O)c(N2CCC(C)(C)CC2)c1-c1ccc2c(c1)CCN(c1nccc(N3CCS(=O)(=O)CC3)n1)C2", "note": "[Example 46, (S)-2-(tert-Butoxy)-2-(4-(4,4-dimethylpiperidin-1-yl)-5-(2-(4-(1,1-dioxidothiomorpholino)pyrimidin-2-yl)-1,2,3,4-tetrahydroisoquinolin-6-yl)-2,6-dimethylpyridin-3-yl)acetic Acid]", "EC50": 9}
{"compound": "Cc1nnc(-c2cc(N3CCc4cc(-c5c(C)nc(C)c([C@H](OC(C)(C)C)C(=O)O)c5N5CCC(C)(C)CC5)ccc4C3)ncn2)o1", "note": "[Example 131, (S)-2-(tert-Butoxy)-2-(4-(4,4-dimethylpiperidin-1-yl)-2,6-dimethyl-5-(2-(6-(5-methyl-1,3,4-oxadiazol-2-yl)pyrimidin-4-yl)-1,2,3,4-tetrahydroisoquinolin-6-yl)pyridin-3-yl)acetic Acid]", "EC50": 4}
{"compound": "Cc1nc(NCCCN2CCN(C)CC2)c(-c2ccc3c(c2)CCN(c2ncnc4c2oc2ccccc24)C3)c(N2CCC(C)(C)CC2)c1[C@H](OC(C)(C)C)C(=O)O", "note": "[Example 16, (S)-2-(5-(2-(Benzofuro[3,2-d]pyrimidin-4-yl)-1,2,3,4-tetrahydroisoquinolin-6-yl)-4-(4,4-dimethylpiperidin-1-yl)-2-methyl-6-((3-(4-methylpiperazin-1-yl)propyl)amino)pyridin-3-yl)-2-(tert-butoxy)acetic Acid]", "EC50": 2}
{"compound": "Cc1nc(C)c([C@H](OC(C)(C)C)C(=O)O)c(N2CCC(C)(C)CC2)c1-c1ccc2c(c1)CCN(c1ccnc(N3C[C@@H](C)O[C@@H](C)C3)n1)C2", "note": "[Example 27, (2S)-2-(tert-Butoxy)-2-[5-(2-{2-[(2R,6S)-2,6-dimethylmorpholin-4-yl]pyrimidin-4-yl}-1,2,3,4-tetrahydroisoquinolin-6-yl)-4-(4,4-dimethylpiperidin-1-yl)-2,6-dimethylpyridin-3-yl]acetic Acid]", "EC50": 2}
{"compound": "Cc1nc(C)c([C@H](OC(C)(C)C)C(=O)O)c(N2CCC(C)(C)CC2)c1-c1ccc2c(c1)CCN(c1ccnc(N3CC4CCC(C3)O4)n1)C2", "note": "[Example 29, (2S)-2-(tert-Butoxy)-2-[4-(4,4-dimethylpiperidin-1-yl)-2,6-dimethyl-5-[2-(2-{8-oxa-3-azabicyclo[3.2.1]octan-3-yl}pyrimidin-4-yl)-1,2,3,4-tetrahydroisoquinolin-6-yl]pyridin-3-yl]acetic Acid]", "EC50": 4}
{"compound": "Cc1ncc(-c2ccc3c(c2)CCN(c2nccc(-c4cnccn4)n2)C3)c(N2CCC(C)(C)CC2)c1[C@H](OC(C)(C)C)C(=O)O", "note": "[Example 147, (S)-2-(tert-Butoxy)-2-(4-(4,4-dimethylpiperidin-1-yl)-2-methyl-5-(2-(4-(pyrazin-2-yl)pyrimidin-2-yl)-1,2,3,4-tetrahydroisoquinolin-6-yl)pyridin-3-yl)acetic Acid]", "EC50": 2}
{"compound": "Cc1nc(C)c([C@H](OC(C)(C)C)C(=O)O)c(N2CCC(C)(C)CC2)c1-c1ccc2c(c1)CCN(c1nccc(N3CCCCC3)n1)C2", "note": "[Example 23, (2S)-2-(tert-Butoxy)-2-[4-(4,4-dimethylpiperidin-1-yl)-2,6-dimethyl-5-{2-[4-(piperidin-1-yl)pyrimidin-2-yl]-1,2,3,4-tetrahydroisoquinolin-6-yl}pyridin-3-yl]acetic Acid]", "EC50": 3}
{"compound": "Cc1nc(C)c([C@H](OC(C)(C)C)C(=O)O)c(N2CCC(C)(C)CC2)c1-c1ccc2c(c1)CCN(c1nc(N3CCOCC3)nn3cccc13)C2", "note": "[Example 84, (S)-2-(tert-Butoxy)-2-(4-(4,4-dimethylpiperidin-1-yl)-2,6-dimethyl-5-(2-(2-morpholinopyrrolo[2,1-f][1,2,4]triazin-4-yl)-1,2,3,4-tetrahydroisoquinolin-6-yl)pyridin-3-yl)acetic Acid]", "EC50": 6}
{"compound": "Cc1nc(C)c([C@H](OC(C)(C)C)C(=O)O)c(N2CCC(C)(C)CC2)c1-c1ccc2c(c1)CCN(c1ccnc(N3CCC(O)CC3)n1)C2", "note": "[Example 75, (S)-2-(tert-Butoxy)-2-(4-(4,4-dimethylpiperidin-1-yl)-5-(2-(2-(4-hydroxypiperidin-1-yl)pyrimidin-4-yl)-1,2,3,4-tetrahydroisoquinolin-6-yl)-2,6-dimethylpyridin-3-yl)acetic Acid]", "EC50": 3}
{"compound": "Cc1cccc(Cl)c1CN1CCc2cc(-c3c(CN(C)CC4CCOCC4)nc(Cl)c([C@H](OC(C)(C)C)C(=O)O)c3N3CCC(C)(C)CC3)ccc2C1", "note": "[Example 98, (S)-2-(tert-Butoxy)-2-(2-chloro-5-(2-(2-chloro-6-methylbenzyl)-1,2,3,4-tetrahydroisoquinolin-6-yl)-4-(4,4-dimethylpiperidin-1-yl)-6-((methyl((tetrahydro-2H-pyran-4-yl)methyl)amino)methyl)pyridin-3-yl)acetic Acid]", "EC50": 0.7}
{"compound": "Cc1nc(C)c([C@H](OC(C)(C)C)C(=O)O)c(N2CCC(C)(C)CC2)c1-c1ccc2c(c1)CCN(c1cc(N3CCC(CO)CC3)ncn1)C2", "note": "[Example 120, (S)-2-(tert-Butoxy)-2-(4-(4,4-dimethylpiperidin-1-yl)-5-(2-(6-(4-(hydroxymethyl)piperidin-1-yl)pyrimidin-4-yl)-1,2,3,4-tetrahydroisoquinolin-6-yl)-2,6-dimethylpyridin-3-yl)acetic Acid]", "EC50": 14}
{"compound": "Cc1cc(N2CCOCC2)nc(N2CCc3cc(-c4c(C)nc(C)c([C@H](OC(C)(C)C)C(=O)O)c4N4CCC(C)(C)CC4)ccc3C2)n1", "note": "[Example 37, (2S)-2-(tert-Butoxy)-2-[4-(4,4-dimethylpiperidin-1-yl)-2,6-dimethyl-5-{2-[4-methyl-6-(morpholin-4-yl)pyrimidin-2-yl]-1,2,3,4-tetrahydroisoquinolin-6-yl}pyridin-3-yl]acetic Acid]", "EC50": 1}
{"compound": "Cc1nc(C)c([C@H](OC(C)(C)C)C(=O)O)c(N2CCC(C)(C)CC2)c1-c1ccc2c(c1)CCN(c1cc(N3CCC(C)CC3)ncn1)C2", "note": "[Example 138, (S)-2-(tert-Butoxy)-2-(4-(4,4-dimethylpiperidin-1-yl)-2,6-dimethyl-5-(2-(6-(4-methylpiperidin-1-yl)pyrimidin-4-yl)-1,2,3,4-tetrahydroisoquinolin-6-yl)pyridin-3-yl)acetic Acid]", "EC50": 2}
{"compound": "Cc1nc(CN2CCC3(CCC3)CC2)c(-c2ccc3c(c2)CCN(c2nccc(-c4cnccn4)n2)C3)c(N2CCC(C)(C)CC2)c1[C@H](OC(C)(C)C)C(=O)O", "note": "[Example 166, (S)-2-(6-(7-Azaspiro[3.5]nonan-7-ylmethyl)-4-(4,4-dimethylpiperidin-1-yl)-2-methyl-5-(2-(4-(pyrazin-2-yl)pyrimidin-2-yl)-1,2,3,4-tetrahydroisoquinolin-6-yl)pyridin-3-yl)-2-(tert-butoxy)acetic Acid]", "EC50": 0.6}
{"compound": "Cc1nc(C)c([C@H](OC(C)(C)C)C(=O)O)c(N2CCC(C)(C)CC2)c1-c1ccc2c(c1)CCN(c1ncnc(N3CCC(O)CC3)n1)C2", "note": "[Example 61, (S)-2-(tert-Butoxy)-2-(4-(4,4-dimethylpiperidin-1-yl)-5-(2-(4-(4-hydroxypiperidin-1-yl)-1,3,5-triazin-2-yl)-1,2,3,4-tetrahydroisoquinolin-6-yl)-2,6-dimethylpyridin-3-yl)acetic Acid]", "EC50": 2}
{"compound": "Cc1nc(C)c([C@H](OC(C)(C)C)C(=O)O)c(N2CCC(C)(C)CC2)c1-c1ccc2c(c1)CCN(c1ccnc(N3CCN(CCO)CC3)n1)C2", "note": "[Example 85, (S)-2-(tert-Butoxy)-2-(4-(4,4-dimethylpiperidin-1-yl)-5-(2-(2-(4-(2-hydroxyethyl)piperazin-1-yl)pyrimidin-4-yl)-1,2,3,4-tetrahydroisoquinolin-6-yl)-2,6-dimethylpyridin-3-yl)acetic Acid]", "EC50": 39}
{"compound": "CCOc1ncnc(N2CCc3cc(-c4c(C)nc(C)c([C@H](OC(C)(C)C)C(=O)O)c4N4CCC(C)(C)CC4)ccc3C2)c1C", "note": "[Example 78, (S)-2-(tert-Butoxy)-2-(4-(4,4-dimethylpiperidin-1-yl)-5-(2-(6-ethoxy-5-methylpyrimidin-4-yl)-1,2,3,4-tetrahydroisoquinolin-6-yl)-2,6-dimethylpyridin-3-yl)acetic Acid]", "EC50": 5}
{"compound": "CC1(C)CCN(c2c(-c3ccc4c(c3)CCN(c3nccc(-c5cnccn5)n3)C4)c(N)nc(Cl)c2[C@H](OC(C)(C)C)C(=O)O)CC1", "note": "[Example 163, (S)-2-(6-Amino-2-chloro-4-(4,4-dimethylpiperidin-1-yl)-5-(2-(4-(pyrazin-2-yl)pyrimidin-2-yl)-1,2,3,4-tetrahydroisoquinolin-6-yl)pyridin-3-yl)-2-(tert-butoxy)acetic Acid]", "EC50": 3}
{"compound": "Cc1nc(C)c([C@H](OC(C)(C)C)C(=O)O)c(N2CCC(C)(C)CC2)c1-c1ccc2c(c1)CCN(c1ccnc(N3CCOCC3)n1)C2", "note": "[Example 57, (S)-2-(tert-Butoxy)-2-(4-(4,4-dimethylpiperidin-1-yl)-2,6-dimethyl-5-(2-(2-morpholinopyrimidin-4-yl)-1,2,3,4-tetrahydroisoquinolin-6-yl)pyridin-3-yl)acetic Acid]", "EC50": 0.5}
{"compound": "Cc1nc(C)c([C@H](OC(C)(C)C)C(=O)O)c(N2CCC(C)(C)CC2)c1-c1ccc2c(c1)CCN(c1cc(N3CCC(O)CC3)ncn1)C2", "note": "[Example 125, (S)-2-(tert-Butoxy)-2-(4-(4,4-dimethylpiperidin-1-yl)-5-(2-(6-(4-hydroxypiperidin-1-yl)pyrimidin-4-yl)-1,2,3,4-tetrahydroisoquinolin-6-yl)-2,6-dimethylpyridin-3-yl)acetic Acid]", "EC50": 23}
{"compound": "CC1(C)CCN(c2c(-c3ccc4c(c3)CCN(c3nccc(-c5cccnc5)n3)C4)cnc(Cl)c2[C@H](OC(C)(C)C)C(=O)O)CC1", "note": "[Example 149, (S)-2-(tert-Butoxy)-2-(2-chloro-4-(4,4-dimethylpiperidin-1-yl)-5-(2-(4-(pyridin-3-yl)pyrimidin-2-yl)-1,2,3,4-tetrahydroisoquinolin-6-yl)pyridin-3-yl)acetic Acid]", "EC50": 2}
